From article PMC7070953, “Design of Light-Sensitive Triggers for Endothelial NO-Synthase Activation” (Antioxidants, 2020)
Entries after “also recorded” stand apart in the source; their conditions may differ. Where two headings read alike, the source gives them in different places.

Tests used:
nNOS [1] = target: T1, nNOS (Rattus norvegicus, UniProt P29476); design: made in house; conditions: value used in the Cheng-Prusoff equation; no reference given; read-out: Km of NADPH for nNOS; cited from earlier work
HUVEC cells [2] = tested on: HUVEC cells; design: key to NO Formed upon Laser Excitation: +: NO formed under laser excitation; −: a lack of NO formed under laser excitation; conditions: cited from earlier work; for NO produced in HUVEC cells upon light activation (in words): ref 15 (NT1), ref 19 (NT2_5), 19 (NT2_7)
[3] = design: method as in earlier work; conditions: cited from earlier work
HUVEC cells [4] = conditions: cited from earlier work
NOS = tested on: NOS; design: method as in PMID 19222033, PMID 17263536; conditions: one and two-photon excitation; cited from earlier work
nNOS [5] = target: T1, nNOS; experiment: Flavin reduction of nNOS upon light irradiation at 365 nm (absorption changes); type: biochemical; design: made in house; calmodulin purchased from Sigma; conditions: for FAD/flavin reduction upon light excitation (in words): irradiation at 365 nm
Experimental: Light irradiation of the NT -nNOS complexes in the presence of NOHA, H4B, and Ca^2+/calmodulin was performed by a continuous irradiation with a Hg/Xe lamp (Hamamatsu, LC6 Lightningcure, 200 W) equipped with narrow-band interference filter to select 365 nm (Semrock FF01-370/36: center wavelength 370 nm, nominal bandwidth […]) during one minute. The absorption changes before and after irradiation were measured on a Cary5000 spectrophotometer from Agilent Technologies (Les Ulys, France).
100 mM NOHA, 100 mM Ca^2+, 1 µg recombinant calmodulin, 20 mM Tris Buffer at pH = 7.8, 100 mM NaCl; representative data out of 2 experiments.

[6] = Self-association of free NTs in buffer (fluorescence vs concentration, fluorescence anisotropy); type: physicochemical
Experimental: (§1) The apparent binding affinities of the NTs to the neuronal (nNOS) and endothelial (eNOS) isoforms of nitric oxide synthase (NOS) were assessed by changes in NT intrinsic fluorescence using two types of titrations. In the first method, aliquots (1 μL) were added to 100 μL buffer containing NOS protein (5 μM), and fluorescence emission spectra were recorded from 430–700 nm (λexcitation = 420 nm; slit widths = 5 nm) on a Shimadzu RF-5301PC fluorimeter. Spectra of intrinsic protein fluorescence and unbound NT were subtracted from protein/NT spectra and the fluorescence at 460 nm was plotted against NT concentration. In the second method, we measured fluorescence spectra at a fixed concentration of the NT (1–2µM) with a Cary Eclipse spectrophotometer set at T = 20 °C, with excitation wavelength at 390 nm and emission wavelengths in the range 410–610 nm; the PM was usually set at 600 V with slits of 10 nm at both excitation and emission. […] The steady-state fluorescence anisotropy was calculated using: r = (IVV − G × IVH)/(IVV + 2G × IVH) where IVV and IVH correspond to vertical and horizontal components, respectively, when the sample is excited with vertically polarized light, G is the G-factor accounting for the difference in the monochromator transmission between // and ⊥ polarized components (G = IHV/IHH). […]

nNOS [7] = target: T1, nNOS; experiment: Fluorescence titration of NT binding to recombinant nNOS; design: made in house; conditions: [nNOS] = 0–10 µM, 10 mM Tris pH 7.2, 100 mM NaCl, read-out: Apparent Kd nNOS
Experimental: as §1

nNOS [8] = target: T1, nNOS; design: made in house; method as in PMID 30986510; conditions: a: protein 5–10 µM, [NTs] = 0–50 µM; read-out: Apparent Kd nNOS; cited from earlier work

NC(=O)C1=CN([C@@H]2O[C@H](COP(=O)(O)OP(=O)(O)OC[C@H]3O[C@@H](n4cnc5c(N)ncnc54)[C@H](OP(=O)(O)O)[C@@H]3O)[C@@H](O)[C@H]2O)C=CC1 [NADPH]
Km (nNOS [1]): 5.5 µM

CCN(CCNC(=O)[C@H]1O[C@@H](n2cnc3c(N)ncnc32)[C@H](OP(=O)(O)O)[C@@H]1O)c1ccc(/C=C/C=C/c2ccc(N)cc2)cc1 [NT1]
NO Formed upon Laser Excitation (HUVEC cells [2]): + | NO produced in HUVEC cells upon light activation (in words) (HUVEC cells [2]): produced NO upon light activation | Self-association (in words) [3]: did not self-associate | Not toxic to HUVEC up to concentration (HUVEC cells [4]): up to 20 µM | Time of initiation and synchronization of NOS catalysis after photoexcitation (NOS): 15–20 ps | FAD/flavin reduction upon light excitation (in words) (nNOS [5]): reduced FAD upon light excitation

CN(Cc1cn(C[C@H]2O[C@@H](n3cnc4c(N)ncnc43)[C@H](OCC(=O)O)[C@@H]2OCC(=O)O)nn1)c1ccc(/C=C/C=C/c2ccc(N)cc2)cc1 [NT2_3]
NO Formed upon Laser Excitation (HUVEC cells [2]): − | FAD/flavin reduction upon light excitation (in words) (nNOS [5]): could not reduce FAD

CN(Cc1cn(C[C@H]2O[C@@H](n3cnc4c(N)ncnc43)[C@H](O)[C@@H]2OCC(=O)O)nn1)c1ccc(/C=C/C=C/c2ccc(N)cc2)cc1 [NT2_5]
Concentration above which fluorescence of free NT deviates from linearity (self-association) ([6]; free NT in buffer, fluorescence at 460 nm, order NT3_3 > NT3_5 > NT2_5 > NT3_7): above 5 µM | NO Formed upon Laser Excitation (HUVEC cells [2]): + | NO produced in HUVEC cells upon light activation (in words) (HUVEC cells [2]): produced NO upon light activation | Cytotoxicity in HUVEC cells above concentration (HUVEC cells [4]; second generation of NT): above 5 µM | Kd (nNOS [7]; b: [NTs] = 1 or 2 µM): 1.3 ± 0.2 µM | Kd (nNOS [7]; c: [NTs] = 2 µM, 100 mM NOHA): 4 ± 0.7 µM | FAD/flavin reduction upon light excitation (in words) (nNOS [5]): reduced FAD upon light excitation | Ground state (dark) FAD reduction, no light (in words) (nNOS [5]; no light): some ground state reduction; also recorded: can reduce FAD in the ground state

CN(Cc1cn(C[C@H]2O[C@@H](n3cnc4c(N)ncnc43)[C@H](OCC(=O)O)[C@@H]2O)nn1)c1ccc(/C=C/C=C/c2ccc(N)cc2)cc1 [NT2_7]
NO Formed upon Laser Excitation (HUVEC cells [2]): − | NO produced in HUVEC cells upon light activation (in words) (HUVEC cells [2]): unable to generate NO | Kd (nNOS [8]): 30 ± 4 µM

O=C1OC2(c3ccc(O)cc3Oc3cc(O)ccc32)c2ccccc21 [fluorescein, reference compound]
Steady-state fluorescence anisotropy r ([6]; nNOS-free, NT3_3 at 5 µM, fluorescein as freely rotating monomer): 0.005
